The conditions of this data set: rat, 6 hours after electroporation treatment, 800 V/cm, 12 pulses of 250 μs length.

Structures are written as SMILES.

Protocol: FIG. 3 schematically illustrates a Gamma Camera image of a rat taken 6 hours after an electroporation treatment with electrical field strength of 800 V/cm and 12 pulses of 250 μs length. […] In FIG. 3, the injection site, the electroporation site and three reference sites are shown.
Further, investigation of the effect of applied electric pulses of 600, 800, 1000, 1200 V/cm; having 100 and 500 μs pulse length, and 2, 4, 6 or 12 pulses, on the accumulation of the radiolabeled pharmaceutical ^99mTc-DTPA that mimics the Bleomycin, in rat muscular tissue after in vivo electro-permeabilization has been performed. Gamma camera measurements is applied to noninvasively quantify the accumulation of ^99mTc-DTPA in the region treated with electrical pulses as previously described.

Take `O=C([O-])CN(CCN(CC(=O)[O-])CC(=O)[O-])CCN(CC(=O)[O-])CC(=O)[O-].[99Tc+4]` [99Tcm-DTPA, 99Tcm- diethylene-triamine-penta-acetic-acid]: the “activity in the electroporated site (Gamma Camera image)” value is “high activity” and the “activity in the reference sites (Gamma Camera image)” value is “low activity”.

These data come from patent US11400283B2, “Pulse generating device for delivery of electrical pulses to a desired tissue of a mammal” (SC[…] AB, priority 2017, dated 2022).
